From patent publication US11591334B2, “Substituted pyrrolizines for the treatment of hepatitis B” (SHANGHAI LONGWOOD BIOPHARMACEUTICALS CO., LTD., priority 2017, dated 2023)
Where two headings read alike, the source gives them in different places.

Assays:
HBV = experiment: Determination of anti-HBV activity in HepG2.2.15 cell (Experiment 2, HBV DNA in supernatant by qPCR); assay type: cell-based; details: Hepatitis B virus; HepG2.2.15 cells, HBV DNA in supernatant on the eighth day, qPCR; read-out: Experiment 2 Cell experiment EC50
Protocol: Experiment 2: Determination of Anti-HBV Activity in HepG2.2.15 Cell
(§1) Compound dilution. All the compounds for in vitro anti-HBV activity assay and cytotoxicity assay were 3-fold diluted into 8 concentrations. The final concentration of the tested compound was 30 μM, the final starting concentration of reference compound GLS4 was 1 μM, and the final concentration of DMSO was 0.5%.
HepG2.2.15 cell (4×10^4 cell/well) was inoculated into 96 well plate, and cultured overnight in 37° C., 5% CO2. On the second day, fresh culture medium containing different concentrations of the compound was added into the culture wells. On the fifth day, the old culture solution in the culture well was aspirated and fresh culture medium containing different concentrations of the compound was added.
On the eighth day, the supernatant in the culture well was collected for extraction of HBV DNA, and the content of DNA in the supernatant of HepG2.2.15 HBV was detected by qPCR. After the supernatant was collected, the medium and Cell-titer Glo reagent were added into the culture well, and the chemiluminescence value of each well was measured by microplate reader.
The activity calculation formula was as follows: Y=Bottom+(Top−Bottom)/(1+10^((LogIC50−X)*Hillslope));

[1] = Determination of cytotoxicity (Experiment 3, resazurin assay); assay type: cell-based; details: human; HepG2 cells, incubated for 4 days, resazurin assay; read-out: Experiment 3 Cytotoxicity CC50
Protocol: as §1, with “0.5%. Experiment 3: Determination of Cytotoxicity The cytotoxicity of the test compound was tested using HepG2 cells. The cells were incubated for 4 days in the presence of the test compound. Cell activity was assessed using the resazurin assay.” for “0.5%.”

C150 protein = target: T1, C150 protein (Hepatitis B virus genotype D subtype adw, UniProt P03147, C107A/C48A/C61A/R150C); experiment: In vitro anti-HBV nucleocapsid assembly activity test (Experiment 1, protein experiment); assay type: biochemical
T1 construct: purchased WuXi Apptec Co., Ltd
Protocol: Experiment 1: In Vitro Anti-HBV Nucleocapsid Assembly Activity Test
Main Reagents and Raw Materials:
C150 protein was expressed and purified by WuXi Apptec Co., Ltd.
BoDIPY® FL was purchased from Thermo Fisher Scientific.
Protein Fluorescent Label:
150 μL of 2% w/v skimmed milk was added into each well of 96-well plate, and incubated at room temperature for 2 hours. The skimmed milk was aspirated. The plate was washed with deionized water and dried, and stored at room temperature. C150 protein (3 mg per tube) was desalted with 5 ml Hitrap desalting column. The desalted C150 protein of each tube was added with 50 mM BoDIPY® FL Fluorescent Dye (20 μl), and incubated under 4° C. overnight in the dark after well mixed. Sephadex G-25 gel was used for filtration to remove fluorescent dyes that were not bounded onto C150. The C150 fluorescent labeling efficiency was calculated according to the following equation: [BoDIPY®FL]=A504/78,000 M^−1; [C150Bo]=(A280−[BoDIPY®FL]×1300 M^−1)/60,900 M^−1; Fluorescent Labeling Efficiency=[BoDIPY®FL]/[C150Bo];
The mother liquor of compound was diluted with DMSO to 6 mM, then diluted to 600 μM with 50 mM HEPES, and then further 3-fold diluted with 10 DMSO/50 mM HEPES to 8 concentrations.
C150Bo was diluted to 2 μM with 50 mM HEPES. 37.5 μL of C150Bo and 2.5 μL of compound at each concentration were added into a 96 well plate and well mixed, then incubated at room temperature for 15 minutes. 10 μl of 750 mM NaCl/50 mM HEPES were added into the each reaction well, and the final concentration of NaCl was 150 mM.
Into the control wells in the 0% protein group 10 μL of 50 mM HEPES was added, and the final concentration of NaCl was 0 mM.
Into the control wells in the 100% protein group 10 μL of 5 M/50 mM HEPES was added, and the final concentration of NaCl was 1 M.
The final concentration of DMSO was 0.5%, the maximum final concentration of the compound was 30 μM, and final concentration of C150Bo was 1.5 μM. The mixture was incubated at room temperature for 1 hour. Fluorescence signal was measured (excitation light was 485 nm; emission light was 535 nm).
Data Analysis % protein assembly=[1−(Sample fluorescence value−1 M NaCl fluorescence value)/(0 M NaCl fluorescence value−1 M NaCl fluorescence value)]×100.
IC50 value was calculated by prism software, and the equation was as follows: Y=Bottom+(Top−Bottom)/(1+10^((LogIC50−X)HillSlope));

[2] = fluorescently labeled C150 (C150Bo) 1.5 μM, 150 mM NaCl, 1 hour at room temperature, read-out: Experiment 1 Protein experiment IC50

T1 sequence (P03147 1-150 C48A/C61A/C107A/R150C): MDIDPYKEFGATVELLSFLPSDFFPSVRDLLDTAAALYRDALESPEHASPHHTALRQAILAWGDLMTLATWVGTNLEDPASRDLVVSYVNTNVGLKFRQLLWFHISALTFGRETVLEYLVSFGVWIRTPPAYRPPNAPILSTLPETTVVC

Compound	EC50 (HBV)	CC50 at 4 days [1]	IC50 (C150 protein; [2])	IC50 (C150 protein)
C[C@@H](NS(=O)(=O)c1c(Cl)c(C(=O)Nc2ccc(F)c(F)c2)n2c1C=CCCC2)C(F)(F)F [Compound 50a]	0.1 to 100 nM	> 30000 nM	1000 to 100000 nM	–
C[C@@H](NS(=O)(=O)c1c(Cl)c(C(=O)Nc2ccc(F)c(C#N)c2)n2c1C=CCCC2)C(F)(F)F [Compound 50b]	0.1 to 100 nM	> 30000 nM	–	> 100000 nM
C[C@@H](NS(=O)(=O)c1c(Cl)c(C(=O)Nc2ccc(F)c(F)c2)n2c1CCCCC2)C(F)(F)F [Compound 60a]	0.1 to 100 nM	> 30000 nM	> 100000 nM	–
C[C@@H](NS(=O)(=O)c1c(Cl)c(C(=O)Nc2ccc(F)c(C#N)c2)n2c1CCCCC2)C(F)(F)F [Compound 60b]	0.1 to 100 nM	> 30000 nM	–	1000 to 100000 nM
CC(NS(=O)(=O)c1c2ncccc2c(C(=O)Nc2ccc(F)c(F)c2)n1C)C(F)(F)F (stereo not drawn) [Compound 70a]	0.1 to 100 nM	> 30000 nM	> 100000 nM	–
CC(NS(=O)(=O)c1c2ncccc2c(C(=O)Nc2ccc(F)c(C#N)c2)n1C)C(F)(F)F (stereo not drawn) [Compound 70b]	0.1 to 100 nM	> 30000 nM	> 100000 nM	–
C[C@@H](NS(=O)(=O)c1c2[nH]ccc2c(C(=O)Nc2ccc(F)c(F)c2)n1C)C(F)(F)F [Compound 80a]	100 to 1000 nM	> 30000 nM	1000 to 100000 nM	–
CC(NS(=O)(=O)c1c2[nH]ccc2c(C(=O)Nc2ccc(F)c(C#N)c2)n1C)C(F)(F)F (stereo not drawn) [Compound 80b]	100 to 1000 nM	> 30000 nM	1000 to 100000 nM	–
CC(NS(=O)(=O)c1c2[nH]ccc2c(C(=O)Nc2cc(F)nc(C#N)c2)n1C)C(F)(F)F (stereo not drawn) [Compound 80d]	0.1 to 100 nM	> 30000 nM	1000 to 100000 nM	–
Cn1c(C(=O)Nc2cc(F)nc(C#N)c2)c2cc[nH]c2c1S(=O)(=O)NC1(C)COC1 [Compound 80f]	0.1 to 100 nM	> 30000 nM	1000 to 100000 nM	–
C[C@@H](NS(=O)(=O)Nc1c(Cl)c(C(=O)Nc2ccc(F)c(F)c2)n2c1CCC2)C(F)(F)F [Compound 90a]	0.1 to 100 nM	> 30000 nM	1000 to 100000 nM	–
CC(NS(=O)(=O)Nc1c(Cl)c(C(=O)Nc2ccnc(Cl)c2)n2c1CCC2)C(F)(F)F (stereo not drawn) [Compound 90b]	0.1 to 100 nM	> 30000 nM	1000 to 100000 nM	–
CC(CO)NS(=O)(=O)Nc1c(Cl)c(C(=O)Nc2cc(F)nc(C#N)c2)n2c1CCC2 (stereo not drawn) [Compound 90f]	0.1 to 100 nM	> 30000 nM	1000 to 100000 nM	–
Cc1c(NS(=O)(=O)NC2(C)COC2)c2n(c1C(=O)Nc1ccc(F)c(F)c1)CCC2 [Compound 90g]	0.1 to 100 nM	> 30000 nM	1000 to 100000 nM	–
Cc1c(NS(=O)(=O)NC2(C)COC2)c2n(c1C(=O)Nc1cc(F)nc(C#N)c1)CCC2 [Compound 90h]	0.1 to 100 nM	> 30000 nM	1000 to 100000 nM	–
CC(NC(=O)Nc1c(Cl)c(C(=O)Nc2ccnc(Cl)c2)n2c1CCC2)C(F)(F)F (stereo not drawn) [Compound 100b]	0.1 to 100 nM	> 30000 nM	–	1000 to 100000 nM
Cc1c(NC(=O)NC(C)C(F)(F)F)c2n(c1C(=O)Nc1ccnc(Cl)c1)CCC2 (stereo not drawn) [Compound 100d]	0.1 to 100 nM	> 30000 nM	–	1000 to 100000 nM
CC(CO)NC(=O)Nc1c(Cl)c(C(=O)Nc2cc(F)nc(C#N)c2)n2c1CCCC2 (stereo not drawn) [Compound 100p]	0.1 to 100 nM	> 30000 nM	1000 to 100000 nM	–
CC(NC(=O)Nc1c(Cl)c(C(=O)Nc2ccnc(Cl)c2)n2c1CCCCC2)C(F)(F)F (stereo not drawn) [Compound 100q]	0.1 to 100 nM	> 30000 nM	1000 to 100000 nM	–
Cc1c(NC(=O)NC2(C)COC2)c2n(c1C(=O)Nc1cc(F)nc(C#N)c1)CCCCC2 [Compound 100r]	0.1 to 100 nM	> 30000 nM	1000 to 100000 nM	–
